Converted amounts (≈) assume the structure as drawn. “And” between values parts separate entries of the source, which are not always exact repeats. Equal values may be shown once. Read-outs that look alike come from different tables or passages of the source.
Experiments:
[1] = system: M. abscessus Bamboo biofilms; test: Biofilm growth inhibition assay (biofilm MIC and MBC); format: cell-based, M. abscessus subsp. abscessus; conditions: Mycobacteroides abscessus
Method: The biofilm growth inhibition assay was performed as previously described ([40]). Innovotech MBEC 96-well biofilm assay plates (Innovotech 19111, Edmonton, AB, Canada) were used, and the supplier’s manual was followed with minor modifications. Mid-log-phase M. abscessus Bamboo precultures (OD600 = 0.4 to 0.6) were spun down at 3200 × g for 10 min at 25°C and washed with 7H9 medium without Tween 80 (7H9nt). Bacteria were resuspended into 25 ml 7H9nt to an OD600 of 0.0125 (1.0 × 10^6 CFU/ml). […] The lids with the pegs were transferred to a new MBEC multititer plate containing 150 μl of fresh 7H9nt medium per well without bacteria (0 h time point). After that, the pegs with growing biofilm were transferred once a day to a new multititer plate containing fresh 7H9nt medium. To measure growth of the biofilm formed on the peg, the pegs were washed in 200 μl of 7H9nt medium before they were aseptically removed and placed in 1.7 ml microcentrifuge tubes (VWR 87003-294, Rador, PA, United States) containing 500 μl PBS/Tween 80. The microcentrifuge tubes were vigorously vortexed at 2,000 rpm for 90 s at 25°C to detach the bacteria from the pegs before samples were serially diluted and plated for the determination of CFU/peg. […] The average drug-free biofilm growth was calculated by subtracting the average 24 h CFU/peg value from the average 72 h CFU/peg value for the untreated control pegs. The biofilm MIC was defined as the lowest drug concentration that reduced the CFU/peg by 90% relative to that of the average drug-free biofilm growth.

[2] = system: M. abscessus subsp. massiliense M111; test: MIC assay in 96-well plate format; format: cell-based; conditions: Mycobacteroides abscessus; M. abscessus subsp. massiliense M111, clinical isolate
[3] = system: M. abscessus subsp. abscessus M199; test: MIC assay in 96-well plate format; format: cell-based; conditions: Mycobacteroides abscessus; M. abscessus subsp. abscessus M199, clinical isolate
[4] = system: M. abscessus subsp. abscessus M337; test: MIC assay in 96-well plate format; format: cell-based; conditions: Mycobacteroides abscessus; M. abscessus subsp. abscessus M337, clinical isolate
[5] = system: M. abscessus Bamboo RM5 (LeuS V417M); test: microbe, parasite or virus in culture; format: cell-based; conditions: Mycobacteroides abscessus, RM5, batch 2, LeuS V417M
[6] = system: M. abscessus subsp. abscessus M404; test: MIC assay in 96-well plate format; format: cell-based; conditions: Mycobacteroides abscessus; M. abscessus subsp. abscessus M404, clinical isolate
[7] = system: M. abscessus subsp. bolletii M506; test: MIC assay in 96-well plate format; format: cell-based; conditions: Mycobacteroides abscessus; M. abscessus subsp. bolletii M506, clinical isolate
[8] = system: M. abscessus subsp. abscessus K21; test: MIC assay in 96-well plate format; format: cell-based; conditions: Mycobacteroides abscessus; M. abscessus subsp. abscessus K21, clinical isolate, infection model
[9] = system: M. abscessus subsp. massiliense CCUG 48898T; test: MIC assay in 96-well plate format; format: cell-based; conditions: Mycobacteroides abscessus, culture collection reference strain
[10] = system: M. abscessus subsp. abscessus ATCC 19977; test: MIC assay in 96-well plate format; format: cell-based; conditions: Mycobacteroides abscessus, ATCC19977; M. abscessus subsp. abscessus ATCC 19977, culture collection reference strain
[11] = system: M. abscessus Bamboo; test: MIC and MBC determination in culture tubes (planktonic)
Method: M. abscessus Bamboo culture was grown to mid-log-phase (OD600 = 0.4 to 0.6) and diluted to OD600 = 0.1 (1 × 10^7 CFU/ml). Aliquots of 1.2 ml of the resulting bacteria suspension were transferred into 14 ml vented, round-bottom tubes (Thermo Fisher 150268, Rochester, NY, United States). A 10-point 2-fold dilution series of the compound was prepared, starting at 100 times the desired highest concentration. The compound concentration range tested was 100 to 0.195 μM. For each drug concentration tested, 12 μl of drug stock was added to two tubes and vortexed. Aliquots of 12 μl of DMSO were added to two tubes as the untreated controls (1% final DMSO concentration). From each tube, 200 μl was transferred to wells on a 96-well plate and the OD600 was measured using a Tecan Infinite M200 plate reader (day 0 reading). The tubes (1 ml final volume) were incubated on a tilted rack at 37°C on an orbital shaker at 220 rpm. On day 2, tubes were vortexed before transferring 200 μl onto a 96-well plate to measure the OD600 again (day 2 reading). To determine the MIC, day 0 and day 2 OD600 values were analyzed as previously described for MIC determination in 96-well plate format. To determine the MBC, CFU measurement was done for the OD600 = 0.1 bacteria suspension on day 0 and for each tube on day 2. Specifically, serial 10-fold dilutions were prepared in phosphate-buffered saline (Thermo Fisher 10010023) containing 0.025% Tween 80 (PBS/Tween 80) and plated on 7H10 agar. The MBC was defined as the lowest concentration of drug that reduced the CFU/ml value by 10-fold relative to the day 0 CFU/ml value.

[12] = system: M. abscessus Bamboo RM1 (LeuS A428P); test: microbe, parasite or virus in culture; format: cell-based; conditions: Mycobacteroides abscessus
[13] = system: M. abscessus Bamboo; test: MIC assay in 96-well plate format; format: cell-based, M. abscessus subsp. abscessus; conditions: Mycobacteroides abscessus
[14] = system: M. abscessus subsp. bolletii CCUG 50184T; test: MIC assay in 96-well plate format; format: cell-based; conditions: Mycobacteroides abscessus, culture collection reference strain
[15] = system: M. avium 11; test: MIC assay in 96-well plate format; format: cell-based, M. avium subsp. hominissuis
[16] = system: M. abscessus Bamboo RM4 (LeuS T327R); test: microbe, parasite or virus in culture; format: cell-based; conditions: Mycobacteroides abscessus
[17] = system: M. abscessus subsp. abscessus M422; test: MIC assay in 96-well plate format; format: cell-based; conditions: Mycobacteroides abscessus; M. abscessus subsp. abscessus M422, clinical isolate
[18] = system: M. abscessus Bamboo RM2 (LeuS K502E); test: microbe, parasite or virus in culture; format: cell-based; conditions: Mycobacteroides abscessus
[19] = system: M. abscessus Bamboo RM3 (LeuS V417M); test: microbe, parasite or virus in culture; format: cell-based; conditions: Mycobacteroides abscessus, RM3, batch 1, LeuS V417M
[20] = system: M. abscessus subsp. bolletii M232; test: MIC assay in 96-well plate format; format: cell-based; conditions: Mycobacteroides abscessus; M. abscessus subsp. bolletii M232, clinical isolate
[21] = system: M. intracellulare ATCC 13950; test: MIC assay in 96-well plate format; format: cell-based; conditions: Mycobacterium intracellulare, ATCC13950; M. intracellulare ATCC 13950, culture collection reference strain
[22] = system: M. abscessus subsp. abscessus M9; test: MIC assay in 96-well plate format; format: cell-based; conditions: Mycobacteroides abscessus; M. abscessus subsp. abscessus M9, clinical isolate
[23] = system: M. chimaera CCUG 50989T; test: MIC assay in 96-well plate format; format: cell-based; conditions: CCUG50989T, culture collection reference strain
[24] = system: M. tuberculosis H37Rv ATCC 27294; set-up: method as in PMID 28953378; conditions: 7H9; cited from earlier work
[25] = system: M. tuberculosis H37Rv ATCC 27294; test: MIC assay in 96-well plate format; format: cell-based; conditions: Mycobacterium tuberculosis, 168 h

SMILES: CC[C@H]1OC(=O)[C@H](C)[C@@H](O[C@H]2C[C@@](C)(OC)[C@@H](O)[C@H](C)O2)[C@H](C)[C@@H](O[C@@H]2O[C@H](C)C[C@H](N(C)C)[C@H]2O)[C@](C)(OC)C[C@@H](C)C(=O)[C@H](C)[C@@H](O)[C@]1(C)O [CLR, clarithromycin, reference compound]
- MBC ([1]; 10-fold CFU/peg reduction vs 24 h): > 100 µM
- MIC ([1]; 48 h with drug, 90% reduction of CFU/peg growth): 1.6 µM (≈ 1.2 µg/mL)
- MIC [2]: 0.24 µM (≈ 0.18 µg/mL)
- MIC [3]: 2.7 µM (≈ 2.02 µg/mL)
- MIC [4]: 0.9 µM (≈ 0.673 µg/mL)
- MIC [5]: 0.46 µM (≈ 0.344 µg/mL)
- MIC [6]: 0.2 µM (≈ 0.15 µg/mL)
- MIC [7]: 0.28 µM (≈ 0.209 µg/mL)
- MIC [8]: 0.4 µM (≈ 0.299 µg/mL)
- MIC [9]: 0.19 µM (≈ 0.142 µg/mL)
- MIC [10]: 0.9 µM (≈ 0.673 µg/mL)
- MBC ([11]; Mycobacteroides abscessus): > 100 µM
- MIC ([11]; Mycobacteroides abscessus, 48 h): 0.28 µM (≈ 0.209 µg/mL)
- MBC ([11]; planktonic M. abscessus Bamboo in culture tubes, day 2, 10-fold CFU/ml reduction vs day 0): >100 µM
- MIC [12]: 0.36 µM (≈ 0.269 µg/mL)
- MIC [13]: 0.31 µM (≈ 0.232 µg/mL)
- MIC ([13]; 72 h, M. abscessus Bamboo, 7H9, 3 days, read-out: MIC): 0.23 µM (≈ 0.172 µg/mL)
- MIC ([13]; 72 h, M. abscessus Bamboo, CAMH broth, 3 days, read-out: MIC): 0.07 µM (≈ 0.0524 µg/mL)
- MIC [14]: 2.5 µM (≈ 1.87 µg/mL)
- MIC ([15]; Mycobacterium avium, 96 h, M. avium 11, 7H9, 4 days, read-out: MIC): 0.3 µM (≈ 0.224 µg/mL)
- MIC [16]: 0.42 µM (≈ 0.314 µg/mL)
- MIC [17]: 0.65 µM (≈ 0.486 µg/mL)
- MIC [18]: 0.38 µM (≈ 0.284 µg/mL)
- MIC [19]: 0.43 µM (≈ 0.322 µg/mL)
- MIC [20]: 0.95 µM (≈ 0.711 µg/mL)
- MIC [21]: 0.15 µM (≈ 0.112 µg/mL)
- MIC [22]: 0.73 µM (≈ 0.546 µg/mL)
- MIC [23]: 0.19 µM (≈ 0.142 µg/mL)

SMILES: NC[C@H]1OB(O)c2c(OCCO)ccc(Cl)c21 [GSK656, (S)-3-(aminomethyl)-4-chloro-7–(2-hydroxyethoxy)benzo[c][1,2]oxaborol-1(3H)-ol]
- MIC [24]: 0.08 μM and 0.08^d μM
- MIC ([13]; 72 h, read-out: MIC): 0.27 µM (≈ 0.0695 µg/mL)
- MIC ([15]; Mycobacterium avium, 11, 96 h): > 50 µM

SMILES: CO[C@H]1/C=C/O[C@@]2(C)Oc3c(C)c(O)c4c(O)c(c(/C=N/N5CCN(C)CC5)c(O)c4c3C2=O)NC(=O)/C(C)=C\C=C\[C@H](C)[C@H](O)[C@@H](C)[C@@H](O)[C@@H](C)[C@H](OC(C)=O)[C@@H]1C [rifampin, reference compound]
- MIC [25]: 0.66 µM (≈ 0.543 µg/mL)

— paper PMC8092876, “A Leucyl-tRNA Synthetase Inhibitor with Broad-Spectrum Antimycobacterial Activity” (Antimicrobial Agents and Chemotherapy, 2021)
